Blank lines part the entries; values can stand above or below the compound they belong to.
What was measured:
[1] = target: Apoptosis regulator Bcl-2 (Homo sapiens, UniProt P10415); experiment: Inhibition of Bid-BH3 peptide binding to Bcl-2 (unknown origin) after 3 hrs by fluorescence polarization method
RS4-11 = experiment: Antiproliferative activity against human RS4:11 cells after 72 hrs by MTT assay; format: functional, cell-based; conditions: RS4-11, 72 h
Jurkat [2] = experiment: Antiproliferative activity against human Jurkat cells after 72 hrs by MTT assay; format: functional, cell-based
Bcl-2-like protein 1 = Bcl-2-like protein 1 (Homo sapiens, UniProt Q07817); experiment: Inhibition of Bid-BH3 peptide binding to Bcl-xL (unknown origin) after 3 hrs by fluorescence polarization method
MOLT-4 = experiment: Antiproliferative activity against human MOLT4 cells after 72 hrs by MTT assay; format: functional, cell-based; conditions: MOLT-4, 72 h
[3] = target: Induced myeloid leukemia cell differentiation protein Mcl-1 (Homo sapiens, UniProt Q07820); experiment: Inhibition of Bid-BH3 peptide binding to Mcl-1 (unknown origin) after 3 hrs by fluorescence polarization method
HUVEC = experiment: Cytotoxicity against HUVEC cells after 72 hrs by MTT assay; format: cell-based; conditions: Homo sapiens
THP-1 = experiment: Antiproliferative activity against human THP1 cells after 72 hrs by MTT assay; format: functional, cell-based; conditions: THP-1, 72 h
Jurkat [4] = experiment: Induction of apoptosis in human Jurkat cells assessed as early apoptotic cells at 20 uM after 48 hrs by annexin V-FITC/PI staining based flow cytometry (reference value: 2.26%); format: functional
Jurkat [5] = experiment: Induction of apoptosis in human Jurkat cells assessed as viable cells at 10 uM after 48 hrs by annexin V-FITC/PI staining based flow cytometry (reference value: 97.4%); format: functional; conditions: read-out: Activity
Jurkat [6] = experiment: Induction of apoptosis in human Jurkat cells assessed as viable cells at 20 uM after 48 hrs by annexin V-FITC/PI staining based flow cytometry (reference value: 97.4%); format: functional; conditions: read-out: Activity
Jurkat [7] = experiment: Induction of apoptosis in human Jurkat cells assessed as necrotic cells at 20 uM after 48 hrs by annexin V-FITC/PI staining based flow cytometry (reference value: 0.008%); format: functional
Jurkat [8] = experiment: Induction of apoptosis in human Jurkat cells after 48 hrs by annexin V-FITC/PI staining based flow cytometry; format: functional, cell-based
Jurkat [9] = experiment: Induction of apoptosis in human Jurkat cells assessed as increase in activation of caspase-3 after 48 hrs by fluorometric method; format: functional, cell-based
Jurkat [10] = experiment: Induction of apoptosis in human Jurkat cells assessed as early apoptotic cells at 10 uM after 48 hrs by annexin V-FITC/PI staining based flow cytometry (reference value: 2.26%); format: functional
Jurkat [11] = experiment: Induction of apoptosis in human Jurkat cells assessed as late apoptotic cells at 10 uM after 48 hrs by annexin V-FITC/PI staining based flow cytometry (reference value: 0.31%); format: functional
Jurkat [12] = experiment: Induction of apoptosis in human Jurkat cells assessed as necrotic cells at 10 uM after 48 hrs by annexin V-FITC/PI staining based flow cytometry (reference value: 0.008%); format: functional
Jurkat [13] = experiment: Induction of apoptosis in human Jurkat cells assessed as late apoptotic cells at 20 uM after 48 hrs by annexin V-FITC/PI staining based flow cytometry (reference value: 0.31%); format: functional

Bcl-2-like protein 1, sequence (Q07817 whole entry): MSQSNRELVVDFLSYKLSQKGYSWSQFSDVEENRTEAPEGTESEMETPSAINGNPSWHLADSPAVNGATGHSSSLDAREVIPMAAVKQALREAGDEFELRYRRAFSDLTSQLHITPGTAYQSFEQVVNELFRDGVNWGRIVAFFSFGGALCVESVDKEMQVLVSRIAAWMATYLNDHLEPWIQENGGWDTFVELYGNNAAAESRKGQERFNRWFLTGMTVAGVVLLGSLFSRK
Apoptosis regulator Bcl-2, sequence (P10415 whole entry): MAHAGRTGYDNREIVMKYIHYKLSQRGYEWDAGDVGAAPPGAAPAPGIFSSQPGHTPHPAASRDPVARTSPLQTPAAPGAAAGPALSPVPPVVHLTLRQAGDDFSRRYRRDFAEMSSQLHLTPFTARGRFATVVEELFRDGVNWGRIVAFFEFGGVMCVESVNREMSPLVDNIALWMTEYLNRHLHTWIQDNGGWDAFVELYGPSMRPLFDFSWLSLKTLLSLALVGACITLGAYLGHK
Induced myeloid leukemia cell differentiation protein Mcl-1, sequence (Q07820 whole entry): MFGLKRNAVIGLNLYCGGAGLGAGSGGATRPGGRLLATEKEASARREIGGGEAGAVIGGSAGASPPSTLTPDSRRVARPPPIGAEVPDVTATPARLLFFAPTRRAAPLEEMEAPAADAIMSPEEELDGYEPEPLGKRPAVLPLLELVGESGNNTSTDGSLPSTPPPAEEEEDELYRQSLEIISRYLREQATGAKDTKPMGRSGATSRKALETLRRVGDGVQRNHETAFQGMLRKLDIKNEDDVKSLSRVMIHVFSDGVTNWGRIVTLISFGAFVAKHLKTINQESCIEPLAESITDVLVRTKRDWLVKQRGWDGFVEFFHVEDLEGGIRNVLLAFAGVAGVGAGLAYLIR

Compound: Cl.N[C@@H](Cc1ccc(OCc2ccccc2)cc1)C(=O)NS(=O)(=O)c1ccc(NCCCc2ccccc2)c([N+](=O)[O-])c1
- Ki [1]: Not Active

Compound: Cl.N[C@@H](Cc1ccc(OCc2ccc(-c3ccccc3)cc2)cc1)C(=O)NS(=O)(=O)c1ccc(Cl)c([N+](=O)[O-])c1
- Ki [1]: Not Active

Compound: Cc1ccc(CC(=O)N[C@@H](Cc2ccc(OCc3ccccc3)cc2)C(=O)NS(=O)(=O)c2ccc(NCCCc3ccccc3)c([N+](=O)[O-])c2)cc1
- IC50 (RS4-11): 16.8 µM
- IC50 (Jurkat [2]): 23.8 µM
- Ki (Bcl-2-like protein 1): Not Active
- IC50 (MOLT-4): > 50 µM
- Ki [3]: 0.5 µM
- IC50 (HUVEC): > 50 µM
- Ki ([1]; read-out: Ki): 0.45 µM
- IC50 (THP-1): 23.9 µM

Compound: CC(C)(C)OC(=O)N[C@@H](Cc1ccc(OCc2ccc(Oc3ccccc3)cc2)cc1)C(=O)NS(=O)(=O)c1ccc(Cl)c([N+](=O)[O-])c1
- Ki ([1]; read-out: Ki): 0.7 µM

Compound: Cl.N[C@@H](Cc1ccc(OCc2ccc(-c3ccccc3)cc2)cc1)C(=O)NS(=O)(=O)c1ccc(NC2CCCCC2)c([N+](=O)[O-])c1
- Ki [1]: Not Active

Compound: CC(C)(C)OC(=O)N[C@@H](Cc1ccc(OCc2ccc(-c3ccccc3)cc2)cc1)C(=O)NS(=O)(=O)c1ccc(NCCCc2ccccc2)c([N+](=O)[O-])c1
- Ki [1]: Not Active

Compound: Cc1ccc(CC(=O)N[C@@H](Cc2ccc(OCc3ccc(-c4ccccc4)cc3)cc2)C(=O)NS(=O)(=O)c2ccc(NCCCc3ccccc3)c([N+](=O)[O-])c2)cc1
- IC50 (RS4-11): 3.39 µM
- IC50 (Jurkat [2]): 3.37 µM
- Ki (Bcl-2-like protein 1): Not Active
- Activity (Jurkat [4]): 20.8%
- IC50 (MOLT-4): 8.36 µM
- viability at 10 µM (Jurkat [5]): 93.8%
- viability at 20 µM (Jurkat [6]): 77.8%
- Activity (Jurkat [7]): 0%
- Ki [3]: 0.19 µM
- Activity (Jurkat [8]): Dose-dependent effect
- Activity (Jurkat [9]): Dose-dependent effect
- IC50 (HUVEC): > 50 µM
- Activity (Jurkat [10]): 5.48%
- Ki ([1]; read-out: Ki): 0.45 µM
- Activity (Jurkat [11]): 0.72%
- Activity (Jurkat [12]): 0.037%
- Activity (Jurkat [13]): 1.42%
- IC50 (THP-1): 6.46 µM

Compound: O=C(N[C@@H](Cc1ccc(OCc2ccc(-c3ccccc3)cc2)cc1)C(=O)NS(=O)(=O)c1ccc(Cl)c([N+](=O)[O-])c1)c1cccnc1
- Ki ([1]; read-out: Ki): 0.58 µM

Compound: CC(C)(C)OC(=O)N[C@@H](Cc1ccc(OCc2ccc(-c3ccccc3)cc2)cc1)C(=O)NS(=O)(=O)c1ccc(NC2CCCCC2)c([N+](=O)[O-])c1
- Ki [1]: Not Active

Compound: CC(C)(C)OC(=O)N[C@@H](Cc1ccc(OCc2ccc(-c3ccc(Cl)cc3)cc2)cc1)C(=O)NS(=O)(=O)c1ccc(Cl)c([N+](=O)[O-])c1
- Ki ([1]; read-out: Ki): 0.58 µM

Compound: N#Cc1ccc(COc2ccc(C[C@H](NC(=O)c3ccc4ccccc4c3)C(=O)NS(=O)(=O)c3ccc(NCCCc4ccccc4)c([N+](=O)[O-])c3)cc2)cc1
- Ki [1]: Not Active

Compound: Cc1ccc(-c2ccc(COc3ccc(C[C@H](NC(=O)OC(C)(C)C)C(=O)NS(=O)(=O)c4ccc(NCC5CCCCC5)c([N+](=O)[O-])c4)cc3)cc2)cc1
- Ki [1]: Not Active

Compound: CC(C)(C)OC(=O)N[C@@H](Cc1ccc(OCc2ccc(-c3ccccc3)cc2)cc1)C(=O)NS(=O)(=O)c1ccc(Cl)c([N+](=O)[O-])c1
- IC50 (RS4-11): 14.1 µM
- IC50 (Jurkat [2]): 23.5 µM
- Ki (Bcl-2-like protein 1): Not Active
- IC50 (MOLT-4): 44.4 µM
- Ki [3]: 0.45 µM
- IC50 (HUVEC): > 50 µM
- Ki ([1]; read-out: Ki): 0.62 µM
- IC50 (THP-1): 27.2 µM

Compound: Cc1ccc(CC(=O)N[C@@H](Cc2ccc(OCc3ccc(-c4ccccc4)cc3)cc2)C(=O)NS(=O)(=O)c2ccc(Cl)c([N+](=O)[O-])c2)cc1
- Ki ([1]; read-out: Ki): 1.1 µM

Compound: Cl.N#Cc1ccc(COc2ccc(C[C@H](N)C(=O)NS(=O)(=O)c3ccc(NCCCc4ccccc4)c([N+](=O)[O-])c3)cc2)cc1
- Ki [1]: Not Active

Compound: CC(C)(C)OC(=O)N[C@@H](Cc1ccc(OCc2ccccc2)cc1)C(=O)NS(=O)(=O)c1ccc(NCCCc2ccccc2)c([N+](=O)[O-])c1
- Ki ([1]; read-out: Ki): 1.5 µM

Compound: CC(C)(C)OC(=O)N[C@@H](Cc1ccc(OCc2ccccc2)cc1)C(=O)NS(=O)(=O)c1ccc(Cl)c([N+](=O)[O-])c1
- Ki [1]: Not Active

Compound: O=C(N[C@@H](Cc1ccc(OCc2ccc(-c3ccccc3)cc2)cc1)C(=O)NS(=O)(=O)c1ccc(NC2CCCCC2)c([N+](=O)[O-])c1)c1ccc2ccccc2c1
- Ki [1]: Not Active

Compound: CC(C)(C)OC(=O)N[C@@H](Cc1ccc(OCc2ccc(C#N)cc2)cc1)C(=O)NS(=O)(=O)c1ccc(NCCCc2ccccc2)c([N+](=O)[O-])c1
- Ki ([1]; read-out: Ki): 0.8 µM

Compound: CCCCCC(=O)N[C@@H](Cc1ccc(OCc2ccc(-c3ccccc3)cc2)cc1)C(=O)NS(=O)(=O)c1ccc(Cl)c([N+](=O)[O-])c1
- Ki ([1]; read-out: Ki): 0.56 µM

Continued, values first:

- Ki ([1]; read-out: Ki): 0.57 µM
Compound: O=C(N[C@@H](Cc1ccc(OCc2ccc(-c3ccccc3)cc2)cc1)C(=O)NS(=O)(=O)c1ccc(Cl)c([N+](=O)[O-])c1)c1ccc2ccccc2c1

- Ki [1]: Not Active
Compound: Cl.N#Cc1ccc(COc2ccc(C[C@H](N)C(=O)NS(=O)(=O)c3ccc(NC4CCCC4)c([N+](=O)[O-])c3)cc2)cc1

- Ki [1]: Not Active
Compound: CC(C)(C)OC(=O)N[C@@H](Cc1ccc(OCc2ccc(Oc3ccccc3)cc2)cc1)C(=O)NS(=O)(=O)c1ccc(NC2CCCCC2)c([N+](=O)[O-])c1

- Ki ([1]; read-out: Ki): 0.85 µM
Compound: Cc1ccc(-c2ccc(COc3ccc(C[C@H](NC(=O)OC(C)(C)C)C(=O)NS(=O)(=O)c4ccc(NCCOc5ccccc5)c([N+](=O)[O-])c4)cc3)cc2)cc1

- Ki ([1]; read-out: Ki): 0.39 µM
Compound: Cc1ccc(-c2ccc(COc3ccc(C[C@H](NC(=O)OC(C)(C)C)C(=O)NS(=O)(=O)c4ccc(Cl)c([N+](=O)[O-])c4)cc3)cc2)cc1

- Ki ([1]; read-out: Ki): 0.61 µM
Compound: N#Cc1ccc(COc2ccc(C[C@H](NC(=O)Cc3ccc(-c4ccccc4)cc3)C(=O)NS(=O)(=O)c3ccc(NC4CCCC4)c([N+](=O)[O-])c3)cc2)cc1

- Ki [1]: Not Active
Compound: CC(C)(C)OC(=O)N[C@@H](Cc1ccc(OCc2ccc(C#N)cc2)cc1)C(=O)NS(=O)(=O)c1ccc(NC2CCCC2)c([N+](=O)[O-])c1

- Ki [1]: Not Active
Compound: Cl.N[C@@H](Cc1ccc(OCc2ccc(-c3ccccc3)cc2)cc1)C(=O)NS(=O)(=O)c1ccc(NCCCc2ccccc2)c([N+](=O)[O-])c1

- Ki ([1]; read-out: Ki): 5.2 µM
Compound: CC(C)(C)OC(=O)N[C@@H](Cc1ccc(OCc2ccc(-c3ccccc3)cc2)cc1)C(=O)NS(=O)(=O)c1ccccc1
